Reference: US20220273571A1, “COMPOSITIONS OF PROBIOTICS AND BIOMASS AND METHODS FOR PROMOTING HEALTH IN A SUBJECT” (Commonwealth Scientific and Industrial Research Organisation, priority 2019, published 2022)

Key:
[1] = system: Lachnospiraceae (Blautia); experiment: In vitro colonic fermentation, 16S rRNA bacterial population analysis; type: cell-based; details: 24 h fermented samples versus Time 0 samples
[2] = system: Ruminococcaceae (Ruminococcus); experiment: as above; type: cell-based; details: 24 h fermented samples versus Time 0 samples
[3] = system: Bacillaceae (Bacillus coagulans); experiment: as above; type: cell-based; details: 24 h fermented samples versus Time 0 samples
[4] = system: Ruminococcaceae (Faecalibacterium prausnitzii); experiment: as above; type: cell-based; details: 24 h fermented samples versus Time 0 samples
[5] = system: Ruminococcaceae; experiment: as above; type: cell-based; details: 24 h fermented samples versus Time 0 samples
[6] = system: Porphyromonadaceae (Parabacteroides distasonis); experiment: as above; type: cell-based; details: 24 h fermented samples versus Time 0 samples
[7] = system: Lachnospiraceae (Lachnospira); experiment: as above; type: cell-based; details: 24 h fermented samples versus Time 0 samples
[8] = system: Veillonellaceae (Dialister); experiment: as above; type: cell-based; details: 24 h fermented samples versus Time 0 samples
[9] = system: Paraprevotellaceae (Paraprevotella); experiment: as above; type: cell-based; details: 24 h fermented samples versus Time 0 samples
[10] = system: Clostridiaceae (Clostridium perfringens); type: cell-based; details: 24 h fermented samples versus Time 0 samples
[11] = system: Erysipelotrichaceae; experiment: In vitro colonic fermentation, 16S rRNA bacterial population analysis; type: cell-based; details: 24 h fermented samples versus Time 0 samples
[12] = system: Veillonellaceae (Veillonella dispar); experiment: as above; type: cell-based; details: 24 h fermented samples versus Time 0 samples
[13] = system: Lachnospiraceae (Coprococcus); experiment: as above; type: cell-based; details: 24 h fermented samples versus Time 0 samples
[14] = system: Lachnospiraceae (Roseburia faecis); experiment: as above; type: cell-based; details: 24 h fermented samples versus Time 0 samples
[15] = system: Enterobacteriaceae (Trabulsiella); experiment: as above; type: cell-based; details: 24 h fermented samples versus Time 0 samples
[16] = pH of formulations in fermentation media before pH adjustment; type: physicochemical; details: 150 mg dried formulation in 10 mL fermentation media, before standardizing the starting pH at 6.8
[17] = system: Lachnospiraceae (Dorea formicigenerans); experiment: In vitro colonic fermentation, 16S rRNA bacterial population analysis; type: cell-based; details: 24 h fermented samples versus Time 0 samples
[18] = system: Bacteroidaceae (Bacteroides); experiment: as above; type: cell-based; details: 24 h fermented samples versus Time 0 samples
[19] = system: faecal slurries (gut microbiota); experiment: In vitro colonic fermentation, SCFA analysis by gas chromatography; details: 24 hrs fermentation, result in words (FIG. 2, FIG. 3)
[20] = system: Ruminococcaceae (Oscillospira); experiment: In vitro colonic fermentation, 16S rRNA bacterial population analysis; type: cell-based; details: 24 h fermented samples versus Time 0 samples
[21] = system: Coriobacteriaceae (Collinsella aerofaciens); experiment: as above; type: cell-based; details: 24 h fermented samples versus Time 0 samples
[22] = system: Lactobacillaceae (Lactobacillus reuteri); experiment: as above; type: cell-based; details: 24 h fermented samples versus Time 0 samples
[23] = system: faecal slurries (gut microbiota); experiment: In vitro colonic batch fermentation, pH value; details: batch fermentation with faecal slurry, 37° C., starting pH adjusted

SMILES: O=C(O[C@@H]1Cc2c(O)cc(O)cc2O[C@@H]1c1cc(O)c(O)c(O)c1)c1cc(O)c(O)c(O)c1 [EGCG, Epigallocatechin gallate]
- Log2 fold change of percentage abundance, Lachnospiraceae (Blautia) [1]: −1.39 Log2 fold change
- Log2 fold change of percentage abundance, Ruminococcaceae (Ruminococcus) [2]: −1.35 Log2 fold change
- Log2 fold change of percentage abundance, Bacillaceae (Bacillus coagulans) [3]: −1.94 Log2 fold change
- Log2 fold change of percentage abundance, Ruminococcaceae (Faecalibacterium prausnitzii) [4]: −0.81 Log2 fold change
- Log2 fold change of percentage abundance, Ruminococcaceae [5]: −0.57 Log2 fold change
- Log2 fold change of percentage abundance, Porphyromonadaceae (Parabacteroides distasonis) [6]: 0.27 Log2 fold change
- Log2 fold change of percentage abundance, Lachnospiraceae (Lachnospira) [7]: −0.28 Log2 fold change
- Log2 fold change of percentage abundance, Veillonellaceae (Dialister) [8]: −0.32 Log2 fold change
- Log2 fold change of percentage abundance, Paraprevotellaceae (Paraprevotella) [9]: 0.46 Log2 fold change
- Log2 fold change of percentage abundance, Clostridiaceae (Clostridium perfringens) [10]: −0.79 Log2 fold change
- Log2 fold change of percentage abundance, Erysipelotrichaceae [11]: −1.30 Log2 fold change
- Log2 fold change of percentage abundance, Veillonellaceae (Veillonella dispar) [12]: −0.58 Log2 fold change
- Log2 fold change of percentage abundance, Lachnospiraceae (Coprococcus) [13]: −0.22 Log2 fold change
- Log2 fold change of percentage abundance, Lachnospiraceae (Roseburia faecis) [14]: −0.11 Log2 fold change
- Log2 fold change of percentage abundance, Enterobacteriaceae (Trabulsiella) [15]: 0.58 Log2 fold change
- pH [16]: 7.16
- Log2 fold change of percentage abundance, Lachnospiraceae (Dorea formicigenerans) [17]: −1.47 Log2 fold change
- Log2 fold change of percentage abundance, Bacteroidaceae (Bacteroides) [18]: −0.13 Log2 fold change
- total and individual SCFA production during fermentation [19]: significantly inhibited
- Log2 fold change of percentage abundance, Ruminococcaceae (Oscillospira) [20]: −0.31 Log2 fold change
- Log2 fold change of percentage abundance, Coriobacteriaceae (Collinsella aerofaciens) [21]: −0.81 Log2 fold change
- Log2 fold change of percentage abundance, Lactobacillaceae (Lactobacillus reuteri) [22]: −0.37 Log2 fold change
- pH at 24 hrs [23]: 6.46 ± 0.05
